Results taken from patent US9737523B2, “Anti-fibrogenic compounds, methods and uses thereof” (priority 2013, dated 2017).

Experiments:
[1] = system: UMSCC; assay: MMP-1 expression in squamous cell carcinoma cell line UMSCC, Western blot; assay type: cell-based, human; settings: 12.5 to 150 μg/ml, 48 hours
Procedure: (§1) The squamous cell carcinoma (UMSCC) cell line derived from patients with head and neck cancer (ATCC™, Manassas, Va.) were maintained in RPMI-1640 medium with 10% FBS. The Human keratinocyte cell line HACAT (ATCC) and the carcinomic human alveolar basal epithelial cell line A549 (ATCC™) were cultured in DMEM with 10% FBS. The diploid lung fibroblasts IMR-90 (ATCC™) were maintained in Minimum Essential Medium (MEM, Invitrogen™) with 10% FBS.
(§2) Similarly, other cells such as synoviocytes, IMR-90, keratinocytes, UMSCC and A549 were treated with kynurenine at concentrations of 12.5 to 150 μg/ml in appropriate media for each cell type as described above for 48 hours. Cells were then harvested for western blot analysis.
(§3) Cells were harvested by Trypsin/EDTA and lysed with cell lysis buffer containing 50 mM Tris-HCl (pH7.40), 150 mM NaCl, 10 mM EDTA, 5 mM EGTA, 1% TritonX-100™, 0.5% Igepal CA-630, 0.025% NaN3 and protease inhibitor cocktail (Sigma™). Cell debris was removed by centrifugation at 20,000×g for 10 minutes. The protein concentration in supernatant was determined using the MicroBCA™ method (Pierce™, Rockford, Ill.). Proteins in supernatant were mixed with protein sample loading buffer (final concentration: 60 mM Tris-HCl (pH 6.80), 2% SDS, 10% glycerol, 1.5% β-mercaptoethanol, 0.002% bromophenol blue) and size fractioned by 10% of SDS-polyacrylamide gel. […]

[2] = system: splenocytes; assay: ConA-induced splenocyte proliferation; assay type: cell-based; settings: 100 and 150 μg/ml
[3] = system: mouse splenocytes; assay: Immune factor protein microarray of conditioned media of ConA-activated splenocytes; assay type: cell-based; settings: 100 μg/mL, 48 hrs
[4] = system: IMR-90; assay: MMP-1 expression in lung fibroblast cell line IMR-90, Western blot; assay type: cell-based, human; settings: IMR-90, 12.5 μg/ml to 150 μg/ml, 48 hours
Procedure: as §1, §2, §3

[5] = system: HACAT; assay: MMP-1 expression in keratinocyte cell line HACAT, Western blot; assay type: cell-based, human; settings: 12.5 to 150 μg/ml, 48 hours
Procedure: as §1, §2, §3

[6] = system: MMP-2; assay: MMP-2 expression in human dermal fibroblasts, Western blot; assay type: cell-based; settings: various concentrations, 48 hours
Procedure: In another set of experiments, fibroblasts at 80% confluence were treated with either kynurenine or tryptophan at the indicated concentrations as mentioned in the result section in DMEM containing 2% FBS and antibiotics for 48 hours. Cells were then harvested by trypsinization and western blot analysis was performed.
as §3, with “gel. After proteins were transferred onto nitrocellulose membrane by iBlot™ (Invitrogen Life Technologies™), non-specific binding were blocked with phosphate buffer saline twenty 20 (PBS-T) containing 5% skim milk for 1 hour. The membrane was then incubated with primary antibody overnight.” for “gel.”

[7] = system: A549; assay: MMP-1 expression in lung epithelial carcinoma cell line A549, Western blot; assay type: cell-based, human; settings: A549, 12.5 to 150 μg/ml, 48 hours
Procedure: as §1, §2, §3

[8] = system: synoviocytes; assay: MMP-1 expression in synoviocytes, Western blot; assay type: cell-based, human; settings: 12.5 μg/ml to 150 μg/ml, 48 hours
Procedure: Synoviocytes were obtained by enzymatic digestion of synovial membrane from patients with rheumatoid arthritis during joint replacement with 1 mg/ml collagenase (Sigma™) in RPMI1640 (Invitrogen Life Technologies™) for 4 hours at 37° C. Dissociated cells were plated in synoviocyte growth medium (Cell Applications Inc.™, San Diego, Calif.) supplemented with penicillin G sodium (100 U/mL), streptomycin sulfate (100 μg/mL), and amphotericin B (0.25 μg/mL).
as §2, §3

[9] = system: MMP-1; assay: MMP-1 expression in human dermal fibroblasts, Western blot; assay type: cell-based; settings: for MMP-1 expression: 48 hours
Procedure: Cells were then harvested after 48 hours and western blot analysis was performed.
Cells were harvested by Trypsin/EDTA and lysed with cell lysis buffer containing 50 mM Tris-HCl (pH7.40), 150 mM NaCl, 10 mM EDTA, 5 mM EGTA, 1% TritonX-100™, 0.5% Igepal CA-630, 0.025% NaN3 and protease inhibitor cocktail (Sigma™). Cell debris was removed by centrifugation at 20,000×g for 10 minutes. The protein concentration in supernatant was determined using the MicroBCA™ method (Pierce™, Rockford, Ill.). Proteins in supernatant were mixed with protein sample loading buffer (final concentration: 60 mM Tris-HCl (pH 6.80), 2% SDS, 10% glycerol, 1.5% β-mercaptoethanol, 0.002% bromophenol blue) and size fractioned by 10% of SDS-polyacrylamide gel. After proteins were transferred onto nitrocellulose membrane by iBlot™ (Invitrogen Life Technologies™), non-specific binding were blocked with phosphate buffer saline twenty 20 (PBS-T) containing 5% skim milk for 1 hour. The membrane was then incubated with primary antibody overnight. After incubation with a secondary antibody for 1 hour, protein bands were visualized by an enhanced chemiluminescence (ECL™) detection system (Santa Cruz Biotechnology™, Santa Cruz, Calif.). The primary antibodies used in this study were: mouse monoclonal anti-human MMP-1 (R&D Systems™, Minneapolis, Minn.), mouse monoclonal anti-human MMP-3 (R&D System™), rabbit monoclonal anti-human MMP-2 (Epitomics™, Burlingame, Calif.), rabbit polyclonal anti-phospho-MEK1/2 (Ser217/221™) (Cell Signaling Technology™, Danvers, Mass.), rabbit polyclonal anti-phospho-p44/42 MAPK (Thr202/Tyr204) (Cell Signaling Technology™), monoclonal anti-β-actin (Sigma™), and mouse anti-type-1 procollagen (Developmental Studies Hybridoma Bank™, Iowa City, Iowa). The secondary antibodies were either goat anti-mouse IgG (H+L) HPR conjugate or goat anti-rabbit IgG (H+L) HPR conjugate (Bio-rad Laboratory™ (Mississauga, ON, Canada). Secondary antibodies were used at a concentration of 1:3000.

[10] = system: type 1 procollagen; assay: Type 1 procollagen expression in dermal fibroblasts, Western blot; assay type: cell-based, human; settings: 25-150 μg/ml, 48 hours
Procedure: Cell debris was removed by centrifugation at 20,000×g for 10 minutes. The protein concentration in supernatant was determined using the MicroBCA™ method (Pierce™, Rockford, Ill.). Proteins in supernatant were mixed with protein sample loading buffer (final concentration: 60 mM Tris-HCl (pH 6.80), 2% SDS, 10% glycerol, 1.5% β-mercaptoethanol, 0.002% bromophenol blue) and size fractioned by 10% of SDS-polyacrylamide gel. After proteins were transferred onto nitrocellulose membrane by iBlot™ (Invitrogen Life Technologies™), non-specific binding were blocked with phosphate buffer saline twenty 20 (PBS-T) containing 5% skim milk for 1 hour. The membrane was then incubated with primary antibody overnight. After incubation with a secondary antibody for 1 hour, protein bands were visualized by an enhanced chemiluminescence (ECL™) detection system (Santa Cruz Biotechnology™, Santa Cruz, Calif.). […] The secondary antibodies were either goat anti-mouse IgG (H+L) HPR conjugate or goat anti-rabbit IgG (H+L) HPR conjugate (Bio-rad Laboratory™ (Mississauga, ON, Canada). Secondary antibodies were used at a concentration of 1:3000.

[11] = system: MEK; assay: MEK phosphorylation in dermal fibroblasts, Western blot; assay type: cell-based, human; settings: 100 μg/ml
Procedure: Cells were harvested by Trypsin/EDTA and lysed with cell lysis buffer containing 50 mM Tris-HCl (pH7.40), 150 mM NaCl, 10 mM EDTA, 5 mM EGTA, 1% TritonX-100™, 0.5% Igepal CA-630, 0.025% NaN3 and protease inhibitor cocktail (Sigma™). Cell debris was removed by centrifugation at 20,000×g for 10 minutes. The protein concentration in supernatant was determined using the MicroBCA™ method (Pierce™, Rockford, Ill.). Proteins in supernatant were mixed with protein sample loading buffer (final concentration: 60 mM Tris-HCl (pH 6.80), 2% SDS, 10% glycerol, 1.5% β-mercaptoethanol, 0.002% bromophenol blue) and size fractioned by 10% of SDS-polyacrylamide gel. After proteins were transferred onto nitrocellulose membrane by iBlot™ (Invitrogen Life Technologies™), non-specific binding were blocked with phosphate buffer saline twenty 20 (PBS-T) containing 5% skim milk for 1 hour. The membrane was then incubated with primary antibody overnight. After incubation with a secondary antibody for 1 hour, protein bands were visualized by an enhanced chemiluminescence (ECL™) detection system (Santa Cruz Biotechnology™, Santa Cruz, Calif.). […]

[12] = system: dermal keratinocytes; assay: MMP-1 expression in primary dermal keratinocytes, Western blot; assay type: cell-based, human; settings: 12.5 to 150 μg/ml, 48 hours
Procedure: Human foreskin keratinocytes were established as previously described (Ghahary et al., 1998). Cells were cultured in serum-free keratinocyte medium (KSFM; Invitrogen Life Technologies™) supplemented with bovine pituitary extract (50 μg/ml) and EGF (0.2 ng/ml). These cells were used at passages 2-5.
as §2, §3

With Nc1ccccc1C(=O)CC(N)C(=O)O (racemic) [kynurenine] the “MMP-1 expression versus untreated controls” value [1] was “did not significantly differ”, the “reduction in conA-induced splenocyte proliferation” value ([2]; after 48 hours) was “about 2 fold” and the “reduction in conA-induced splenocyte proliferation” value ([2]; after 96 hours) was roughly 5 fold. For the same molecule, the IL-17 production [3] was “significantly decrease”, the “proinflammatory cytokine and chemokine production (IL-1, IL-2, CXCL9, CXCL10)” value [3] was “immune suppressive effect” and the MMP-1 expression [4] was “up-regulated”. The “MMP-1 expression versus untreated controls” value [5] was “did not significantly differ”, the “MMP-2 expression versus untreated fibroblasts” value [6] was “no significant difference” and the “MMP-1 expression versus untreated controls” value [7] was “did not significantly differ”. The MMP-1 expression [8] was “up-regulated”, the “MMP1 protein expression 48 hours after treatment removal” value ([9]; 100 μg/ml for 48 hours, then 48 hours after removal) was “gradually reduced to normal levels” and the “MMP1 expression versus untreated cells after treatment removal” value ([9]; 100 μg/ml for 48 hours, then another 24 hours after removal) was “remained significantly higher”. The MMP1 expression ([9]; 100 μg/ml, at 48 hours after treatment) was “marked increase”, the MMP-1 expression ([9]; 25-150 μg/ml) was “significantly increased” and the “concentration that could stimulate MMP-1 expression (as little as)” value ([9]; dermal fibroblasts, data not shown) was 12.5 µg/mL. For the same molecule, the MMP-1 expression ([9]; kynurenine isoforms, 50 μg/ml) was “increase”, the “expression of type 1 procollagen” value [10] was “remarkably decreases” and the “time of peak MEK activation” value [11] was 8 h. The MEK phosphorylation ([11]; different times) was “detection of the ERK1/2 upstream signal molecule MEK phosphorylation” and the “MMP-1 expression versus untreated controls” value [12] was “did not significantly differ”.
